Consider 3 compounds from patent US11884636B2, “Gonadotropin releasing hormone receptor antagonist and use thereof” (SHIJIAZHUANG YILING PHARMACEUTICAL CO., LTD., priority 2020, dated 2024).

Structures are written as SMILES. “Also recorded” adds a separate entry of the source. Like-named read-outs stand apart in the source and are kept apart here.

Data set [1] deals with T1, recombinant human gonadotropin-releasing hormone receptor (GnRHR) (Homo sapiens, UniProt P30968).
T1 construct: expressed in transfected cells
T1 sequence (P30968 1-328): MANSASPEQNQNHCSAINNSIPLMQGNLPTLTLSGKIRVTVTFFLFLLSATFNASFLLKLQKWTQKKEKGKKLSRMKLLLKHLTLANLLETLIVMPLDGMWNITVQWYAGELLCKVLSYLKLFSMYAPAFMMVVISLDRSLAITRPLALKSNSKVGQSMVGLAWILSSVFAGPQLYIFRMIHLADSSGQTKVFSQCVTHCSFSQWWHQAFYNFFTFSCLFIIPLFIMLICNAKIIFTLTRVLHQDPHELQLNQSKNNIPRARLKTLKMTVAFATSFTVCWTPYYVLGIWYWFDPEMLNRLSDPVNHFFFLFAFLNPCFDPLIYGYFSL
The experiment in a line: FLIPR calcium flux assay in CHO-K1/GNRHR/Gα15 cells. The conditions noted are these: Buserelin EC80 agonist, read-out: EC50, inhibition of intracellular calcium release. Type of data set: cell-based. On the procedure: Intracellular calcium changes of cell line CHO-K1/GNRHR/Gα15 that is stable of a recombinant human gonadotropin-releasing hormone receptor (GnRHR) were measured using an FLIPR calcium flux assay kit (Calcium 4 assay kit). GnRHR is a G protein-coupled receptor (GPCRs), and a GPCRs signal enabled intracellular calcium release through a Gq pathway. Therefore, functional changes of GnRHR, which carried out signal transduction through the Gq pathway, can be detected by detecting intracellular calcium release with a calcium-sensitive fluorescent probe. The assay steps were as follows: • 1. Cells were seeded in 384-well plates (Corning, Cat #:3764) at a density of 10,000 cells/well with an F12+10% FBS medium (20 μl/well) and cultured overnight (18 h). • 2. A dye working solution was prepared from a probenecid stock solution (500 mM) and a Calcium 4 stock solution mixed at 1:100. A sample to be tested G201 and Elagolix (2 mM in DMSO) was diluted with an assay buffer, specifically, 5 μl of 2 mM stock solution was taken and diluted to 200 μl (50 μM) to obtain a 5× sample working solution of a first concentration. 20 μl of the 5× sample working solution was taken and diluted to 200 μl, and after even mixing, a sample working solution of a second concentration was obtained. A total of eight gradient dilutions of sample working solutions were prepared respectively. […]

Data set [2] is described as follows: Rat pharmacokinetic assay. In kind it is in vivo. The conditions noted are these: SD rats; for F (absolute bioavailability) / bioavailability: oral gavage 50 mg/kg vs intravenous 25 mg/kg; for bioavailability / AUC(0-inf) / Cmax / Tmax / AUC(0-t) / clearance / Vd: female, rat, plasma; for bioavailability: SD, oral, 50 mg/kg, read-out: F (absolute bioavailability); for AUC(0-t): read-out: AUC0-24 h; for clearance: read-out: CLz (clearance rate) (converted); for Vd: read-out: Vz (apparent volume of distribution). On the procedure: 12 female SD rats, divided into four groups of three per group, were administrated G201 (dissolved in saline containing 5% N,N-dimethylacetamide and 5% cremophor ELL) and Elagolix Sodium (dissolved directly in saline) intravenously and by gavage at doses of 25 mg/kg and 50 mg/kg, respectively. Food was fasted overnight before administration and resumed 4 h after administration, with free access to water throughout the assay period. Blood was collected from the retro-orbital venous plexus before and 5, 15, 30 min, 1, 2, 4, 6, 8, 24 h after administration, and the volume of blood collected was approximately 0.2 mL. A whole blood sample centrifuged at 4000 rpm for 10 min within 1 h from collection. The upper layer of plasma was separated and stored in a refrigerator at minus 20° C. within 1 h until analysis. After the plasma sample were precipitated by methanolic protein at 1:8, G201 and Elagolix plasma concentrations were measured by an LC-MS/MS method, and main pharmacokinetic parameters were calculated by applying DAS3.2.7 software.

Data set [3] is described as follows: Mouse pharmacokinetic assay. In kind it is in vivo. The conditions noted are these: ICR mice. On the procedure:
10 female ICR mice, divided into two groups of five per group, were administrated G201 intravenously and by oral gavage, respectively, at a dose of 10 mg/kg. Blood was collected from the retro-orbital venous plexus 0.083, 0.25, 0.5, 1, 2, 4, 6, 8 h after administration, and the volume of blood collected was approximately 0.1 mL. A blood sample was centrifuged at 4000 rpm for 10 min within 1 h. The upper layer of plasma was separated and stored in a refrigerator at minus 80° C. within 1 h to be measured. The subject animals were fasted for at least 12 h before blood collection and were not water fasted. Food and water were fasted during blood collection and free 2 h after administration. The plasma concentration of G201 in the ICR mice was measured by an LC-MS/MS method, and main pharmacokinetic parameters were calculated by applying DAS 3.2.7 pharmacokinetic software and include AUC0-4, AUC0-∞, Cmax, t1/2, etc.

For data set [4], the system named is serum luteinizing hormone (LH). Kind of data set: Pharmacodynamic assay in male emasculated cynomolgus monkeys (serum LH). In kind it is in vivo. On the procedure: Three male cynomolgus monkeys (purchased from Guangxi GuiDong Quadrumana Development & Laboratory Co., Ltd.), 3 to 5 years old (weight 3.8 to 4.0 kg), were fasted overnight and underwent bilateral orchiectomy under anesthesia. Serum luteinizing hormone (LH) was measured in the cynomolgus monkeys from 3 to 7 weeks after emasculation using radioimmunoassay.
After successful emasculation surgical modeling, G201 and Elagolix Sodium (dissolvent: 0.5% CMC-Na) were given in 2 administration cycles by single oral gavage at doses of 10 mg/kg and 30 mg/kg, respectively, both in a volume of 10 mL/kg. Each administration cycle was separated by an elution period of approximately 2 weeks. For each cycle of administration, blood was collected before and 0.25, 0.5, 1, 2, 3, 6, 8 and 24 h after administration, respectively, and serum was separated for gonadal hormone LH assay.

The conditions of data set [5]: mice, dose of 10 mg/kg; cited from earlier work.
The conditions of data set [6]: rats; cited from earlier work.
For data set [7] the following is noted: monkeys; cited from earlier work.
The conditions of data set [8]: rats, oral radiolabeled Elagolix; cited from earlier work.
For data set [9] the following is noted: human bodies; cited from earlier work.
The mark [10] stands for this setting: female, mouse, plasma, intravenous injection 10 mg/kg.
Where [11] appears, read: female, mouse, plasma, oral administration 10 mg/kg.

What is called bioavailability is the share of a dose that reaches the circulation, judged against a reference dose that is usually intravenous. For orientation: AUC(0-inf) means the area under the concentration-time curve extrapolated to infinity. The term Cmax denotes the maximum level reached in the sampled fluid or tissue. Usually Tmax stands for the time at which the peak concentration occurs. A word on the clearance: it is the rate of elimination divided by the concentration. On to `COc1cccc(-c2c(C)n(Cc3c(F)cccc3C(F)(F)F)c(=O)n(C[C@H](NCCCC(=O)O)c3ccccc3F)c2=O)c1F` [Compound G201], for which the IC50 in data set [1] was 37.6 nM. In data set [2] (intravenous injection 25 mg/kg), the t1/2z amounted to 47.4 min, the AUC(0-inf) turned out to be 15700 ng·h/mL, the Cmax worked out at 27200 ng/mL and the Tmax was 4.8 min. Besides, in [2] (intravenous injection 25 mg/kg), the AUC(0-t) is 15700 ng·h/mL, the clearance is 27 mL/min/kg and the Vd stood at 1.82 L/kg. For the same compound, in data set [2] (oral gavage 50 mg/kg), the “oral AUC0-∞ relative to that of Elagolix Sodium” value is given as “three times”, the t1/2z stood at 282 min, the AUC(0-inf) came to 16400 ng·h/mL and the peak level (Cmax) was 17000 ng/mL. Besides, in data set [2] (oral gavage 50 mg/kg), the Tmax is 25.2 min and the AUC(0-t) came to 16300 ng·h/mL. Also, in data set [2], the “F (absolute bioavailability)” value came out at 51.9% and the bioavailability is 51.9%. Further, in data set [3] (intravenous injection 10 mg/kg), the CLz amounted to 53 mL/min/kg and the t1/2z is 15.6 min. The compound further came in with a t1/2z in [3] (oral administration 10 mg/kg) of 25.8 min. Besides, in [3] (setting [10]), the AUC(0-inf) amounted to 3250 ng·h/mL and the AUC(0-t) is 3240 ng·h/mL. The Vd in data set [3] (female, mouse, plasma, intravenous injection 10 mg/kg, read-out: Vz) amounted to 1.17 L/kg. In [3] (setting [11]), the AUC(0-inf) was 1270 ng·h/mL, the AUC(0-t) was 1010 ng·h/mL, the Cmax amounted to 2000 ng/mL and the Tmax was found to be 16.2 min. Also, in [3] (female, mouse, plasma, oral administration 10 mg/kg vs intravenous 10 mg/kg, read-out: F (absolute bioavailability)), the bioavailability turned out to be 38.9%. In addition, in data set [4] (single oral gavage 10 mg/kg), the “general condition, weight and abnormalities during the assay period” value is reported as “no subject-related abnormalities were observed”; the “serum LH change after administration” value is reported as “decreased significantly”; the “time of serum LH minimum after administration” value was 3 h. Further, the “serum LH inhibitory effect compared with 30 mg/kg Elagolix Sodium” value in [4] (single oral gavage 10 mg/kg G201) was “slightly higher magnitude of change; also recorded: comparable or superior”.
As to `COc1cccc(-c2c(C)n(Cc3c(F)cccc3C(F)(F)F)c(=O)n(C[C@H](NCCCC(=O)[O-])c3ccccc3)c2=O)c1F.[Na+]` [Elagolix Sodium, Sodium R-(+)-4-{2-[5-(2-Fluoro-3-methoxyphenyl)-3-(2-fluoro-6-[trifluoromethyl]-benzyl)-4-methyl-2,6-dioxo-3,6-dihydro-2H-pyrimidin-1-yl]-1-phenylethylamino}butyrate, reference compound], in data set [2] (intravenous injection 25 mg/kg), the t1/2z was found to be 130 min, the AUC(0-inf) is 10200 ng·h/mL, the Cmax was found to be 15600 ng/mL and the Tmax was 4.8 min. Besides, in data set [2] (intravenous injection 25 mg/kg), the AUC(0-t) worked out at 10200 ng·h/mL, the clearance is 41.3 mL/min/kg and the Vd came to 8.46 L/kg. In addition, in [2] (oral gavage 50 mg/kg), the t1/2z worked out at 272 min, the total exposure AUC(0-inf) amounted to 4870 ng·h/mL, the Cmax worked out at 4660 ng/mL and the Tmax amounted to 25.2 min. In data set [2] (oral gavage 50 mg/kg), the AUC(0-t) worked out at 4830 ng·h/mL. Further, in data set [2], the “F (absolute bioavailability)” value was 23.7% and the bioavailability was 23.6%. For the same compound, in [4] (single oral gavage 30 mg/kg), the “general condition, weight and abnormalities during the assay period” value is recorded as “no subject-related abnormalities were observed”; the “serum LH change after administration” value was “decreased significantly”; the “time at which serum LH returned to the pre-administration level” value was found to be 24 h; the “time of serum LH minimum after administration” value worked out at 3 h.
As for `COc1cccc(-c2c(C)n(Cc3c(F)cccc3C(F)(F)F)c(=O)n(C[C@H](NCCCC(=O)[O-])c3ccccc3)c2=O)c1F.[Na+]` [Elagolix, Sodium R-(+)-4-{2-[5-(2-Fluoro-3-methoxyphenyl)-3-(2-fluoro-6-[trifluoromethyl]-benzyl)-4-methyl-2,6-dioxo-3,6-dihydro-2H-pyrimidin-1-yl]-1-phenylethylamino}butyrate], the absolute bioavailability in [5] was 10%. The figures for the absolute oral bioavailability in data set [6] and in data set [7] were 5.8% and 11%, respectively. In addition, in data set [8], the “total radioactivity excreted through the bile” value is ~50%. For the same compound, the “apparent volume of distribution” value in data set [9] is listed as 1674 L.
